Results reported in the supplement of paper PMC11208160.

Test: recombinant UMI read abundance after kanamycin selection (control-corrected) (log10(CPM+1)); higher = more efficient recombination; extreme values may be limits of the assay; sequences stand for … in AGTGCAGAGAAAATCGGCCAGTTTTCTCTGCCTGCAGTCCGCATGCCGTGGGACCCCTTGGGTTCTAACCTGTTGCCTAGATTTATGCAGCGGACTGCCTTTCTCCCAAAGTGATAAACCGG…AGGTTGGTTTCACT; site = the 11-nt donor
Procedure, shortened: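 Pooled Escherichia coli screen of donor and donor-binding-loop pairs for the IS621 bridge recombinase. Each pair sits with a 12-nt UMI on a plasmid carrying a promoterless kanamycin gene. The library was co-electroporated with a target plasmid encoding a fixed target and T7-inducible recombinase, then plated with IPTG (0.07 mM) plus kanamycin, or unselected, each in two replicates. Recombinant UMIs were PCR-amplified across the donor–target junction and sequenced. Counts became CPM, averaged over replicates, scaled by control-derived factors and reported as log10(CPM+1).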
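Also: IS621 bridge recombinase in Escherichia coli cells against a fixed T5 target plasmid.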

Sequence | recombinant UMI read abundance (log10)
TGAAGCACATGGACCGGTTTTCCCGGTAATCCGTATTTGCG (site TGAAGCACTCG) | 1.18
TGAATCACATGGACCGGTTTTCCCGGTAATCCGTATTTGAA (site CACGCGCCTGA) | 0.00781
TGACATTCATGGACCGGTTTTCCCGGTAATCCGTATTTGCC (site TGACATTCTGG) | 2.22
TGACCCGCATGGACCGGTTTTCCCGGTAATCCGTATTTGAC (site CAGATACCTCC) | 0.00655
TGACGAACATGGACCGGTTTTCCCGGTAATCCGTATTTGGT (site TGACGAACTAC) | 1.16
TGACGCTCATGGACCGGTTTTCCCGGTAATCCGTATTTGCG (site TGACGCTCTCG) | 1.33
TGACTGCCATGGACCGGTTTTCCCGGTAATCCGTATTTGAA (site TGACTGCCTTT) | 0.0135
TGACTGGCATGGACCGGTTTTCCCGGTAATCCGTATTTGTA (site TGACTGGCTTA) | 1.34
TGACTGTCATGGACCGGTTTTCCCGGTAATCCGTATTTGAT (site TGACTGTCTAT) | 0.245
TGACTTTCATGGACCGGTTTTCCCGGTAATCCGTATTTGAG (site TGACTTTCTCT) | 0
TGAGCGTCATGGACCGGTTTTCCCGGTAATCCGTATTTGAC (site TGAGCGTCTGT) | 1.7
TGAGCTACATGGACCGGTTTTCCCGGTAATCCGTATTTGTC (site GCGAACTCTCC) | 0
TGAGGACCATGGACCGGTTTTCCCGGTAATCCGTATTTGGG (site AGAGGACCTCC) | 0.0068
TGAGGACCATGGACCGGTTTTCCCGGTAATCCGTATTTGGG (site CGAGGACCTCC) | 0.00688
TGAGGACCATGGACCGGTTTTCCCGGTAATCCGTATTTGGG (site GGAGGACCTCC) | 0.0165
TGAGGACCATGGACCGGTTTTCCCGGTAATCCGTATTTGGG (site TGAGGACCTCC) | 0.0291
TGAGGACCATGGACCGGTTTTCCCGGTAATCCGTATTTGGT (site TGAGGACCTAC) | 0.00901
TGAGGAGCATGGACCGGTTTTCCCGGTAATCCGTATTTGGT (site TGAGGAGCTAC) | 1.12
TGAGGCTCATGGACCGGTTTTCCCGGTAATCCGTATTTGGT (site TGAGGCTCTAC) | 1.76
TGAGTTTCATGGACCGGTTTTCCCGGTAATCCGTATTTGCT (site TGAGTTTCTAG) | 1.54
TGATACTCATGGACCGGTTTTCCCGGTAATCCGTATTTGCA (site TAATACTCTTG) | 2.38
TGATACTCATGGACCGGTTTTCCCGGTAATCCGTATTTGCA (site TCATACTCTTG) | 1.29
TGATACTCATGGACCGGTTTTCCCGGTAATCCGTATTTGCA (site TGATACTCTTG) | 2.51
TGATACTCATGGACCGGTTTTCCCGGTAATCCGTATTTGCA (site TTATACTCTTG) | 1.96
TGATCATCATGGACCGGTTTTCCCGGTAATCCGTATTTGCG (site CGATCATCTAG) | 0

Sequence | recombinant UMI read abundance (log10)
TGATCATCATGGACCGGTTTTCCCGGTAATCCGTATTTGCG (site TGATCATCTCG) | 1.27
TGATCGACATGGACCGGTTTTCCCGGTAATCCGTATTTGTT (site AGATCGACTAA) | 0.0146
TGATCGACATGGACCGGTTTTCCCGGTAATCCGTATTTGTT (site CGATCGACTAA) | 0.0214
TGATCGACATGGACCGGTTTTCCCGGTAATCCGTATTTGTT (site GGATCGACTAA) | 0.0286
TGATCGACATGGACCGGTTTTCCCGGTAATCCGTATTTGTT (site TGATCGACTAA) | 0.0254
TGATTATCATGGACCGGTTTTCCCGGTAATCCGTATTTGAA (site TGATTATCTTT) | 1.32
TGCACAGCATGGACCGGTTTTCCCGGTAATCCGTATTTGGC (site TGCACAGCTGC) | 1.05
TGCATATCATGGACCGGTTTTCCCGGTAATCCGTATTTGAC (site TGCATATCTGT) | 1.25
TGCATCCCATGGACCGGTTTTCCCGGTAATCCGTATTTGAC (site TGCATCCCTGT) | 0.448
TGCATGCCATGGACCGGTTTTCCCGGTAATCCGTATTTGGT (site TGCATGCCTAC) | 0.0134
TGCCAATCATGGACCGGTTTTCCCGGTAATCCGTATTTGTG (site TGCCAATCTCA) | 0.0694
TGCCACACATGGACCGGTTTTCCCGGTAATCCGTATTTGAG (site TGCCACACTCT) | 0.305
TGCCCCGCATGGACCGGTTTTCCCGGTAATCCGTATTTGTT (site TGCCCCGCTAA) | 0.0107
TGCCGATCATGGACCGGTTTTCCCGGTAATCCGTATTTGGT (site TGCCGATCTAC) | 0
TGCCGCTCATGGACCGGTTTTCCCGGTAATCCGTATTTGGA (site TGCCGCTCTTC) | 0.324
TGCCGGTCATGGACCGGTTTTCCCGGTAATCCGTATTTGCA (site TGCCGGTCTTG) | 1.45
TGCCGTTCATGGACCGGTTTTCCCGGTAATCCGTATTTGAT (site TGCCGTTCTAT) | 0
TGCCTCGCATGGACCGGTTTTCCCGGTAATCCGTATTTGAT (site TGCCTCGCTAT) | 0.0124
TGCGTCACATGGACCGGTTTTCCCGGTAATCCGTATTTGCC (site TGCGTCACTGG) | 1.97
TGCTAATCATGGACCGGTTTTCCCGGTAATCCGTATTTGCT (site TGCTAATCTAG) | 1.08
TGCTAGGCATGGACCGGTTTTCCCGGTAATCCGTATTTGGG (site TGCTAGGCTAC) | 0.0327
TGCTAGGCATGGACCGGTTTTCCCGGTAATCCGTATTTGGG (site TGCTAGGCTCC) | 0.00935
TGCTAGGCATGGACCGGTTTTCCCGGTAATCCGTATTTGGG (site TGCTAGGCTGC) | 0
TGCTAGGCATGGACCGGTTTTCCCGGTAATCCGTATTTGGG (site TGCTAGGCTTC) | 0.00914
TGCTAGTCATGGACCGGTTTTCCCGGTAATCCGTATTTGAC (site TGCTAGTCTGT) | 0

Sequence | recombinant UMI read abundance (log10)
TGCTCAACATGGACCGGTTTTCCCGGTAATCCGTATTTGGC (site TGCTCAACTGC) | 0
TGCTCATCATGGACCGGTTTTCCCGGTAATCCGTATTTGCT (site CGATCATCTAG) | 0
TGCTCATCATGGACCGGTTTTCCCGGTAATCCGTATTTGCT (site TGCTCATCTAG) | 1.08
TGCTCCACATGGACCGGTTTTCCCGGTAATCCGTATTTGGA (site TGCTCCACTTC) | 0
TGCTCCCCATGGACCGGTTTTCCCGGTAATCCGTATTTGGT (site TGCTCCCCTAC) | 0.0121
TGCTGCGCATGGACCGGTTTTCCCGGTAATCCGTATTTGTG (site TGCTGCGCTCA) | 0.0115
TGCTGGGCATGGACCGGTTTTCCCGGTAATCCGTATTTGGT (site TGCTAGGCTAC) | 0.109
TGCTGGGCATGGACCGGTTTTCCCGGTAATCCGTATTTGGT (site TGCTCGGCTAC) | 0.0121
TGCTGGGCATGGACCGGTTTTCCCGGTAATCCGTATTTGGT (site TGCTGGGCTAC) | 0.306
TGCTGGGCATGGACCGGTTTTCCCGGTAATCCGTATTTGGT (site TGCTTGGCTAC) | 0.0187
TGCTGTCCATGGACCGGTTTTCCCGGTAATCCGTATTTGTT (site TGCTGTCCTAA) | 0.00448
TGGAAGACATGGACCGGTTTTCCCGGTAATCCGTATTTGCG (site AGGAAGACTTG) | 0
TGGAAGACATGGACCGGTTTTCCCGGTAATCCGTATTTGCG (site TGGAAGACTCG) | 2.05
TGGACAACATGGACCGGTTTTCCCGGTAATCCGTATTTGTG (site TGGACAACTCA) | 0.209
TGGACCTCATGGACCGGTTTTCCCGGTAATCCGTATTTGAG (site TGGACCTCTCT) | 0.96
TGGATCACATGGACCGGTTTTCCCGGTAATCCGTATTTGCT (site TGGATCACTAG) | 1.72
TGGCAACCATGGACCGGTTTTCCCGGTAATCCGTATTTGCT (site TGGCAACCTAG) | 0
TGGCAAGCATGGACCGGTTTTCCCGGTAATCCGTATTTGGC (site TGGCAAGCTGC) | 0.585
TGGCATACATGGACCGGTTTTCCCGGTAATCCGTATTTGTA (site TGGCATACTTA) | 0.751
TGGCCGGCATGGACCGGTTTTCCCGGTAATCCGTATTTGGA (site TGGCCGGCTAC) | 0.0385
TGGCCGGCATGGACCGGTTTTCCCGGTAATCCGTATTTGGA (site TGGCCGGCTCC) | 0.0416
TGGCCGGCATGGACCGGTTTTCCCGGTAATCCGTATTTGGA (site TGGCCGGCTGC) | 0
TGGCCGGCATGGACCGGTTTTCCCGGTAATCCGTATTTGGA (site TGGCCGGCTTC) | 0.0151
TGGCCGGCATGGACCGGTTTTCCCGGTAATCCGTATTTGGG (site TGGCCGGCTAC) | 0.0282
TGGCCGGCATGGACCGGTTTTCCCGGTAATCCGTATTTGGG (site TGGCCGGCTCC) | 0.059
